# Measurements from patent publication US9328099B2, “Cyanomethylpyrazole carboxamides as janus kinase inhibitors” (Merck Sharp & Dohme Corp., priority 2011, dated 2016).
# Columns and labels:
# JAK1 = JAK1 (Homo sapiens (Human), UniProt P23458); experiment: Jak Biochemical HTRF Assay, JAK1; conditions: HTRF biochemical assay, GST-tagged catalytic domain; top concentration tested […]; read-out: JAK1 IC50
# From the text: (§1) Jak Biochemical HTRF Assay Protocol
# (§2) Subsequent reagent additions employed an Agilent Bravo.
# JAK2 = JAK2 (Homo sapiens (Human), UniProt O60674); experiment: Jak Biochemical HTRF Assay, JAK2; conditions: HTRF biochemical assay, GST-tagged catalytic domain; top concentration tested […]
# JAK2, sequence (O60674 849-1124): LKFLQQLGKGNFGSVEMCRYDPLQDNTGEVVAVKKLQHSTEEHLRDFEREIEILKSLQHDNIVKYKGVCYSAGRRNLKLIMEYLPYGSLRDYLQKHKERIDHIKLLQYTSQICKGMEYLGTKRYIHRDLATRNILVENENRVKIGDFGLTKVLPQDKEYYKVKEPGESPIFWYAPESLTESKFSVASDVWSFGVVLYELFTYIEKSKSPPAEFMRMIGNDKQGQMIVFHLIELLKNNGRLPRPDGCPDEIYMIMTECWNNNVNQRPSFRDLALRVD
# From the text: as §1, §2
# JAK1, sequence (P23458 875-1153): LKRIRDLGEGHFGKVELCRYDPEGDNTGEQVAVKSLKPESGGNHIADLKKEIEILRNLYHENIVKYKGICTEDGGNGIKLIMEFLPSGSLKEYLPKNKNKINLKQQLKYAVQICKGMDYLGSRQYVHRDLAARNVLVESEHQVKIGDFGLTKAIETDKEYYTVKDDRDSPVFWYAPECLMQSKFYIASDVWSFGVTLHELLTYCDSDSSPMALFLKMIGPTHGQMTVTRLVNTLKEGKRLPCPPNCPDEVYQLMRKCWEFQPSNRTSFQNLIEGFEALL
Compound,IC50 (JAK1) [nM],IC50 (JAK2) [nM]
"CC(C)COC(=O)N1CC(CC#N)(n2cc(C(N)=O)c(Nc3ccccc3)n2)C1 [Example 30-51, 2-methylpropyl 3-[4-carbamoyl-3-(phenylamino)-1H-pyrazol-1-yl]-3-(cyanomethyl)azetidine-1-carboxylate]",14,298
"N#CCC1(n2cc(C(N)=O)c(Nc3ccccc3)n2)CN(C(=O)OCCN2CCOCC2)C1 [Example 30-55, 2-morpholin-4-ylethyl 3-[4-carbamoyl-3-(phenylamino)-1H-pyrazol-1-yl]-3-(cyanomethyl)azetidine-1-carboxylate]",74,491
"N#CCC1(n2cc(C(N)=O)c(Nc3ccccc3)n2)CN(C(=O)OC2CCCCC2)C1 [Example 30-57, cyclohexyl 3-[4-carbamoyl-3-(phenylamino)-1H-pyrazol-1-yl]-3-(cyanomethyl)azetidine-1-carboxylate]",14,466
"COCCOC(=O)N1CC(CC#N)(n2cc(C(N)=O)c(Nc3ccccc3)n2)C1 [Example 30-59, 2-methoxyethyl 3-[4-carbamoyl-3-(phenylamino)-1H-pyrazol-1-yl]-3-(cyanomethyl)azetidine-1-carboxylate]",15,336
"CCOC(=O)COC(=O)N1CC(CC#N)(n2cc(C(N)=O)c(Nc3ccccc3)n2)C1 [Example 30-60, 2-ethoxy-2-oxoethyl 3-[4-carbamoyl-3-(phenylamino)-1H-pyrazol-1-yl]-3-(cyanomethyl)azetidine-1-carboxylate]",39,484
"COCCCOC(=O)N1CC(CC#N)(n2cc(C(N)=O)c(Nc3ccccc3)n2)C1 [Example 30-61, 3-methoxypropyl 3-[4-carbamoyl-3-(phenylamino)-1H-pyrazol-1-yl]-3-(cyanomethyl)azetidine-1-carboxylate]",37,603
"N#CCC1(n2cc(C(N)=O)c(Nc3ccccc3)n2)CN(C(=O)OCCN2CCCC2=O)C1 [Example 30-64, 2-(2-oxopyrrolidin-1-yl)ethyl 3-[4-carbamoyl-3-(phenylamino)-1H-pyrazol-1-yl]-3-(cyanomethyl)azetidine-1-carboxylate]",188,1480
"N#CCC1(n2cc(C(N)=O)c(Nc3ccccc3)n2)CN(C(=O)OCc2ccncc2)C1 [Example 30-66, pyridin-4-ylmethyl 3-[4-carbamoyl-3-(phenylamino)-1H-pyrazol-1-yl]-3-(cyanomethyl)azetidine-1-carboxylate]",19,353
"N#CCC1(n2cc(C(N)=O)c(Nc3ccccc3)n2)CN(C(=O)OCCc2ccccn2)C1 [Example 30-67, 2-pyridin-2-ylethyl 3-[4-carbamoyl-3-(phenylamino)-1H-pyrazol-1-yl]-3-(cyanomethyl)azetidine-1-carboxylate]",108,849
"N#CCC1(n2cc(C(N)=O)c(Nc3ccccc3)n2)CN(C(=O)OCCCc2cccnc2)C1 [Example 30-68, 3-pyridin-3-ylpropyl 3-[4-carbamoyl-3-(phenylamino)-1H-pyrazol-1-yl]-3-(cyanomethyl)azetidine-1-carboxylate]",45,445
"COc1ccccc1COC(=O)N1CC(CC#N)(n2cc(C(N)=O)c(Nc3ccccc3)n2)C1 [Example 30-69, 2-methoxybenzyl 3-[4-carbamoyl-3-(phenylamino)-1H-pyrazol-1-yl]-3-(cyanomethyl)azetidine-1-carboxylate]",31,671
"COc1cccc(COC(=O)N2CC(CC#N)(n3cc(C(N)=O)c(Nc4ccccc4)n3)C2)c1 [Example 30-70, 3-methoxybenzyl 3-[4-carbarnoyl-3-(phenylamino)-1H-pyrazol-1-yl]-3-(cyanomethyl)azetidine-1-carboxylate]",21,423
"CN(C)CCCOC(=O)N1CC(CC#N)(n2cc(C(N)=O)c(Nc3ccccc3)n2)C1 [Example 30-71, 3-(dimethylamino)propyl 3-[4-carbamoyl-3-(phenylamino)-1H-pyrazol-1-yl]-3-(cyanomethyl)azetidine-1-carboxylate]",200,1480
"CN1CCC(COC(=O)N2CC(CC#N)(n3cc(C(N)=O)c(Nc4ccccc4)n3)C2)CC1 [Example 30-73, (1-methylpiperidin-4-yl)methyl-3-[4-carbamoyl-3-(phenylamino)-1H-pyrazol-1-yl]-3-(cyanomethyl)azetidine-1-carboxylate]",130,1480
"CS(=O)(=O)c1ccc(Nc2nn(C3(CC#N)CN(C(=O)OC4CCOC4)C3)cc2C(N)=O)cc1 (centres unmarked) [Example 30-75, tetrahydrofuran-3-yl 3-(4-carbamoyl-3-{[4-(methylsulfonyl)phenyl]amino)-1H-pyrazol-1-yl)-3-(cyanomethyl)azetidine-1-carboxylate]",22,221
"CS(=O)(=O)c1ccc(Nc2nn(C3(CC#N)CN(C(=O)OC4CCOCC4)C3)cc2C(N)=O)cc1 [Example 30-76, tetrahydro-2H-pyran-4-yl 3-(4-carbamoyl-3-{[4-(methylsulfonyl)phenyl]amino}-1H-pyrazol-1-yl)-3-(cyanomethyl)azetidine-1-carboxylate]",74,285
"CC(=O)N1CC(CC#N)(n2cc(C(N)=O)c(Nc3ccccc3)n2)C1 [Example 32, 1-[1-Acetyl-3-(cyanomethyl)azetidin-3-yl]-3-(phenylamino)-1H-pyrazole-4-carboxamide]",94,510
"CC(C)(C)C(=O)N1CCC(CC#N)(n2cc(C(N)=O)c(Nc3ccccc3)n2)CC1 [Example 34-3, 1-[4-(cyanomethyl)-1-(2,2-dimethylpropanoyl)piperidin-4-yl]-3-(phenylamino)-1H-pyrazole-4-carboxamide]",13,91
"CCCCC(=O)N1CCC(CC#N)(n2cc(C(N)=O)c(Nc3ccccc3)n2)CC1 [Example 34-4, 1-[4-(cyanomethyl)-1-pentanoylpiperidin-4-yl]-3-(phenylamino)-1H-pyrazole-4-carboxamide]",12,70

# The remaining lines, values ahead:
IC50 (JAK1) [nM],IC50 (JAK2) [nM],Compound
2,27,"N#CCC1(n2cc(C(N)=O)c(Nc3ccccc3)n2)CN(C(=O)OCCF)C1 [Example 30-50, 2-fluoroethyl 3-[4-carbamoyl-3-(phenylamino)-1H-pyrazol-1-yl]-3-(cyanomethyl)azetidine-1-carboxylate]"
3,76,"N#CCC1(n2cc(C(N)=O)c(Nc3ccccc3)n2)CN(C(=O)OC2CCCC2)C1 [Example 30-52, cyclopentyl 3-[4-carbamoyl-3-(phenylamino)-1H-pyrazol-1-yl]-3-(cyanomethyl)azetidine-1-carboxylate]"
11,262,"N#CCC1(n2cc(C(N)=O)c(Nc3ccccc3)n2)CN(C(=O)OCc2ccccc2)C1 [Example 30-53, benzyl 3-[4-carbamoyl-3-(phenylamino)1H-pyrazol-1-yl]-3-(cyanomethyl)azetidine-1-carboxylate]"
5,102,"N#CCC1(n2cc(C(N)=O)c(Nc3ccccc3)n2)CN(C(=O)OC2CCOC2)C1 (centres unmarked) [Example 30-62, tetrahydrofuran-3-yl 3-[4-carbamoyl-3-(phenylamino)-1H-pyrazol-1-yl]-3-(cyanomethyl)azetidine-1-carboxylate]"
12,271,"N#CCC1(n2cc(C(N)=O)c(Nc3ccccc3)n2)CN(C(=O)OCc2cccnc2)C1 [Example 30-65, pyridin-3-ylmethyl 3-[4-carbamoyl-3-(phenylamino)-1H-pyrazol-1-yl]-3-(cyanomethyl)azetidine-1-carboxylate]"
0.2,9,"C[C@H](OC(=O)N1CCC(CC#N)(n2cc(C(N)=O)c(Nc3ccnc(F)c3)n2)CC1)C1CC1 [Example 30-77, (1S)-1-cyclopropylethyl 4-{4-carbamoyl-3-[(2-fluoropyridin-4-yl)amino]-1H-pyrazol-1-yl}-4-(cyanomethyl)piperidine-1-carboxylate]"
0.3,12,"C[C@@H](OC(=O)N1CCC(CC#N)(n2cc(C(N)=O)c(Nc3ccnc(F)c3)n2)CC1)C1CC1 [Example 30-78, (1R)-1-cyclopropylethyl 4-{4-carbamoyl-3-[(2-fluoropyridin-4-yl)amino]-1H-pyrazol-1-yl}-4-(cyanomethyl)piperidine-1-carboxylate]"
0.4,8,"CC(CO)OC(=O)N1CCC(CC#N)(n2cc(C(N)=O)c(Nc3ccc(F)cc3)n2)CC1 (centres unmarked) [Example 31, 2-Hydroxy-1-methylethyl 4-{4-carbamoyl-3-[(4-fluorophenyl)amino]-1H-pyrazol-1-yl}-4-(cyanomethyl)piperidine-1-carboxylate]"
2,26,"CCC(=O)N1CCC(CC#N)(n2cc(C(N)=O)c(Nc3ccccc3)n2)CC1 [Example 33-1, 1-[4-(Cyanomethyl)-1-propanoylpiperidin-4-yl]-3-(phenylamino)-1H-pyrazole-4-carboxamide]"
2,64,"C/C=C/C(=O)N1CCC(CC#N)(n2cc(C(N)=O)c(Nc3ccccc3)n2)CC1 [Example 33-2, 1-{1-[(2E)-but-2-enoyl]-4-(cyanomethyl)piperidin-4-yl}-3-(phenylamino)-1H-pyrazole-4-carboxamide]"
1,16,"N#CCC1(n2cc(C(N)=O)c(Nc3ccccc3)n2)CCN(C(=O)C2CC2)CC1 [Example 34-1, 1-[4-(Cyanomethyl)-1-(cyclopropylcarbonyl)piperidin-4-yl]-3-(phenylamino)-1H-pyrazole-4-carboxamide]"
5,93,"COCC(=O)N1CCC(CC#N)(n2cc(C(N)=O)c(Nc3ccccc3)n2)CC1 [Example 34-2, 1-[4-(cyanomethyl)-1-(methoxyacetyl)piperidin-4-yl]-3-(phenylamino)-1H-pyrazole-4-carboxamide]"
